Source: patent US20140142170A1, “COMPOSITION AND METHOD FOR INFLUENCING ENERGY METABOLISM AND TREATING METABOLIC AND OTHER DISORDERS” (SIRTUIN VALLEY OY, priority 2010, published 2014)
Values joined by “and” are separate entries in the source; they are usually repeats but may differ in a detail not shown here. Equal values may be shown once.

Columns and labels:
Type in all cases: cell-based
PGC-1α [1] = test: PGC-1α protein expression, immunoblot and densitometry in 3T3 L1 preadipocytes; settings: 60 μM, 24 hours, control = 100%
Method: 3T3L1 cells were purchased from American Type Culture Collection (Manassas, Va., USA) and cultured in DMEM media containing 4.5 g/l glucose supplemented with 10% fetal bovine serum (Hyclone), 2 mM L-glutamine (Gibco), 100 U/ml penicillin, and 100 μg/ml streptomycin (Gibco). The cells were cultured at 37° C. in a humidified atmosphere with 10% CO2. […]
Protein concentrations were measured using a BCA (bicinchoninic acid) protein assay kit (Cat.#23225; Pierce, Rockford, Ill.). Twenty (20) μg/lane of total cellular protein samples containing NuPAGE LDS sample buffer (Invitrogen) and reducing agent were loaded into 4-12% NuPAGE Bis-Tris gels (Invitrogen), subjected to gel electrophoresis, and transferred to polyvinylidene fluoride membranes (Amersham). For SIRT1 proteins, membranes were blocked in 0.05% TBS-Tween with 3% milk for 1 hour, incubated overnight at +4° C. with SIRT1 primary antibodies (Cat.#07-131, Millipore). For phospho-AMPKα and AMPKα proteins, blocking was done for 1 hour in 0.1% TBS-Tween with 5% milk. The membranes were incubated overnight at +4° C. with phospho-AMPKα (Cat. #2535, Cell Signaling) and AMPKα (Cat.#2532, Cell Signaling) primary antibodies. Horseradish peroxidase-conjugated anti-rabbit antibodies (Cat. #NA934V GE Health Care, Amersham, U.K) were used as secondary antibodies. For α-tubulin (loading control), membranes were blocked in 0.05% PBS-Tween with 3% milk for 1 hour, incubated with α-tubulin (Cat.# B-5-1-2, Sigma) primary antibodies for 1 hour at room temperature and horseradish peroxidase-conjugated anti-mouse (Cat. # NA 931V GE Health Care, Amersham, U.K.) IgG antibodies were used as secondary antibodies.
The membranes were developed using chemiluminescence (ECL plus, GE Health Care), and images were captured in an Image Quant RT-ECL machine (version 1.0.1; GE Health Care). Densitometry and quantification of the bands were done by applying Quantity One software (Bio-Rad). The expression levels of the proteins were normalized to α-tubulin protein levels.
PGC-1α as an indicator of SIRT1 activity: PGC-1α has been extensively described as a master regulator of mitochondrial biogenesis. […] When SIRT1 protein expression is induced, it interacts with and deacetylates PGC-1α in an NAD-dependent manner. Thus SIRT1 acts as a modulator of PGC-1a (Rodgers J T et al, Nature 2005). The effects of resveratrol, a nonselective SIRT1 activator, were associated with an induction of genes for oxidative phosphorylation and mitochondrial biogenesis, and were largely explained by a resveratrol-mediated decrease in PGC-1α acetylation and an increase in PGC-1α activity (Lagouge M, Cell 2006). Therefore, PGC-1α protein expression serves as an indicator of SIRT1 activity.
3T3L1 cells were purchased from American Type Culture Collection (Manassas, Va., USA) and cultured in DMEM media containing 4.5 g/l glucose supplemented with 10% fetal bovine serum (Hyclone), 2 mM L-glutamine (Gibco) and 100 U/ml penicillin, 100 μg/ml streptomycin (Gibco). The cells were cultured at 37° C. in a humidified atmosphere with 10% CO2. 3T3L1 preadipocytes were plated at 1×10^5 cells/well in 6 well plates and incubated at 37° C. in a humidified atmosphere with 10% CO2. The media was removed after 24 hours and the cells were treated with 60 μM GR24 or with 60 μM 1A, 1B, 5A, 5B, 6A, or 7A and incubated for 24 hours at 37° C. in a humidified atmosphere with 10% CO2. In all experiments, the controls were treated with the same volume of DMSO as was used to dissolve compounds in compound-treated cells to show and ensure that the actual change in protein expression in different treatments was only due to the compounds […]. The media was removed, cells were washed with PBS and cell lysates were collected on ice. Proteins were extracted using RIPA buffer along with protease and phosphatase inhibitors. Lysates were centrifuged for 30 min at high speed; supernatant was collected and stored at −70° C. until further analysis.

AMPK = test: total AMPK expression, immunoblot in 3T3L1 preadipocytes; settings: 100 μM, 24 hours
Method: 3T3L1 cells were purchased from American Type Culture Collection (Manassas, Va., USA) and cultured in DMEM media containing 4.5 g/l glucose supplemented with 10% fetal bovine serum (Hyclone), 2 mM L-glutamine (Gibco), 100 U/ml penicillin, and 100 μg/ml streptomycin (Gibco). The cells were cultured at 37° C. in a humidified atmosphere with 10% CO2.
The 3T3L1 cells were plated at 6×10^4 cells/well in 12 well plates and incubated at 37° C. in a humidified atmosphere with 10% CO2. […] The media was removed, cells were washed with PBS, and cell lysates were collected on ice. Proteins were extracted using RIPA buffer along with protease and phosphatase inhibitors. Lysates were centrifuged for 30 min at high speed; supernatant was collected and stored at […] until further analysis. The vehicle controls were 3T3 L1 cells without any treatment with drugs or other compounds. The drugs or compounds that were used in all the experiments were dissolved or diluted in dimethylsulfoxide (DMSO) as diluent. […]
Protein concentrations were measured using a BCA (bicinchoninic acid) protein assay kit (Cat.#23225; Pierce, Rockford, Ill.). […]
The membranes were developed using chemiluminescence (ECL plus, GE Health Care), and images were captured in an Image Quant RT-ECL machine (version 1.0.1; GE Health Care). Densitometry and quantification of the bands were done by applying Quantity One software (Bio-Rad). […]

PGC-1α [2] = test: PGC-1α protein expression, immunoblot and densitometry in 3T3 L1 preadipocytes; settings: 3T3L1 preadipocytes, 100 μM, 24 hours

CC1=CC(O/C=C2/C(=O)O[C@@H]3c4ccccc4C[C@H]23)OC1=O (stereo partly shown) [GR24]
PGC-1α protein expression compared to control (100%) (PGC-1α [1]): 168% and 164% and 198% and 220% and 149% | total AMPK expression vs control (AMPK): down-regulated | PGC-1α expression vs control (PGC-1α [2]): significantly increased | PGC-1α expression vs control (PGC-1α [2]; listed as GR 24): activation
